Results taken from US20220007644A1, “COMPOSITIONS COMPRISING PYRIDINE CARBOXYLATE HERBICIDES WITH PHOTOSYSTEM II AND OPTIONAL HPPD INHIBITOR HERBICIDES” (Corteva Agriscience LLC, priority 2018, published 2022).

Experiments:
Assay type in all cases: in vivo
Conditions in all cases: 140 g ai/ha alone
[1] = tested on: ABUTH, Abutilon theophrasti (velvetleaf); experiment: Greenhouse postemergence herbicidal effect (visual injury, 20-22 d)
Text: (§1) Greenhouse Trial Methodology—Evaluation of Postemergence Herbicidal Effect
(§2) Seeds of the desired test plant species were planted in a 90:10% v/v (volume/volume) mixture of PRO-MIX® BX (Premier Tech Horticulture, Quakertown, Pa., USA) and PROFILE®GREENS GRADE™ (Profile Products LLC, Buffalo Grove, Ill., USA) planting mixture, which typically has a pH of 5.2 to 6.2 and an organic matter content of at least 50 percent, in plastic pots with a surface area of 103.2 square centimeters (cm^2). In some aspects, to help ensure good germination and healthy plants, a fungicide treatment and/or other chemical or physical treatment was applied. The plants were grown for 7-36 days (d) in a greenhouse with an approximate 14-hour (h) photoperiod which was maintained at about 23° C. during the day and 22° C. during the night. Nutrients and water were added on a regular basis and supplemental lighting was provided with overhead metal halide 1000-Watt lamps as necessary. The plants were employed for testing when they reached the second or third true leaf stage.
(§3) Emulsifiable concentrates of each of each pyridine carboxylate herbicide (Compound A or Compound B) were prepared at 100 grams acid equivalent per liter (g ae/L). The emulsifiable concentrates also included a safener, cloquintocet-mexyl, at 120 grams active ingredient per liter (g ai/L), unless otherwise noted below. An aliquot of each emulsifiable concentrate was placed in a 25 mL glass vial and diluted with an aqueous mixture of 1.25% (v/v) ACTIROB® B esterified rapeseed oil (Bayer Crop Science, Research Triangle Park, N.C., USA) or MSO® Concentrate with LECI-TECH® methylated soybean oil (Loveland Products, Loveland, Colo., USA) to obtain concentrated stock solutions at the highest application rate for each herbicide, based upon a 12 milliliter (mL) application volume at a rate of 187 liters per hectare (L/ha). The concentrated stock solutions were further diluted with an aqueous mixture of 1.25% v/v ACTIROB® B or MSO® Concentrate with LECI-TECH® to obtain stock solutions at reduced application rates for each herbicide. Spray solutions of the herbicide combinations (Compound A or Compound B plus PS-II herbicide and optional HPPD herbicide) were prepared by adding weighed amounts or aliquots of the PS-II herbicide and optional HPPD herbicide to the stock solutions of Compound A or Compound B to form 12-mL spray solutions in two- or three-way combinations.
(§4) The spray solutions were applied to the plant material with an overhead Mandel track sprayer equipped with 8002E nozzles calibrated to deliver 187 L/ha over an application area of 0.503 square meters (m^2) at a spray height of 18 inches ([…] centimeters (cm)) above the average plant canopy. Control plants were sprayed in the same manner with the solvent blank. All pyridine carboxylate herbicide (component a) application rates are given as “g ae/ha” and all PS II inhibitor herbicide (component b) and HPPD inhibitor herbicide (component c) application rates are given as “g ai/ha.”
(§5) The treated plants and control plants were placed in a greenhouse as described above and watered by sub-irrigation to prevent wash-off of the test compounds. After 20-22 d, the condition of the test plants as compared with that of the control plants was determined visually and scored on a scale of 0 to 100 percent where 0 corresponds to no injury and 100 corresponds to complete kill.

[2] = tested on: AMARE, Amaranthus retroflexus (pigweed); experiment: as above
Text: as §1, §2, §3, §4, §5

[3] = tested on: BRSNN, Brassica napus (spring rape); experiment: as above
Text: as §1, §2, §3, §4, §5

[4] = tested on: BRSNW, Brassica napus (winter rape); experiment: as above
Text: as §1, §2, §3, §4, §5

[5] = tested on: CHEAL, Chenopodium album L. (common lambsquarters); experiment: as above
Text: as §1, §2, §3, §4, §5

[6] = tested on: CIRAR, Cirsium arvense (Canada thistle); experiment: as above
Text: as §1, §2, §3, §4, §5

[7] = tested on: EPHHL, Euphorbia heterophylla (poinsettia); experiment: as above
Text: as §1, §2, §3, §4, §5

[8] = tested on: KCHSC, Kochia scoparia (kochia); experiment: as above
Text: as §1, §2, §3, §4, §5

[9] = tested on: MATCH, Matricaria chamomilla (wild chamomile); experiment: as above
Text: as §1, §2, §3, §4, §5

[10] = tested on: POLCO, Polygonum convolvulus (wild buckwheat); experiment: as above
Text: as §1, §2, §3, §4, §5

[11] = tested on: SASKR, Salsola kali (Russian thistle); experiment: as above
Text: as §1, §2, §3, §4, §5

[12] = tested on: SETFA, Setaria faberi (giant foxtail); experiment: as above
Text: as §1, §2, §3, §4, §5

[13] = tested on: SINAR, Sinapis arvensis (wild mustard); experiment: as above
Text: as §1, §2, §3, §4, §5

[14] = tested on: STEME, Stellaria media (chickweed); experiment: as above
Text: as §1, §2, §3, §4, §5

[15] = tested on: VIOTR, Viola tricolor (wild pansy); experiment: as above
Text: as §1, §2, §3, §4, §5

[16] = tested on: HORVS, Hordeum vulgare (spring barley); experiment: Greenhouse postemergence phytotoxicity on crop (visual injury, 20-22 d)
Text: as §1, §2, §3, §4, §5

[17] = tested on: TRZAS, Triticum aestivum (spring wheat); experiment: as above
Text: as §1, §2, §3, §4, §5

## N#Cc1cc(Br)c(O)c(Br)c1 [Bromoxynil, 3,5-dibromo-4-hydroxbenzonitrile, reference compound]
[1]
  visual injury Obs: 30%
[2]
  visual injury: 5%
[3]
  visual injury Obs: 3%
[4]
  visual injury: 10%
[5]
  visual injury: 0%
  visual injury Obs: 48%
[6]
  visual injury: 45%
  visual injury Obs: 60%
[7]
  visual injury Obs: 30%
[8]
  visual injury: 38%
  visual injury Obs: 35%
[9]
  visual injury: 5%
[10]
  visual injury: 100%
[10]; Fallopia convolvulus, post-emergence, read-out: visual injury Obs
  pest or weed control at 140 g/ha: 55%
[11]
  visual injury: 75%
[12]
  visual injury Obs: 0%
[13]
  visual injury: 10%
[14]
  visual injury Obs: 0%
[15]
  visual injury Obs: 0%
[16]
  visual injury: 0%
[17]
  visual injury: 0%
